This note sets out measurements from patent publication US6492563B2, “Fragrance precursors” (Givaudan SA, priority 2000, dated 2002).

Holding throughout (type): physicochemical
Data set [1] is described as follows: Stability tests in aqueous buffer solutions. To be noted: for Stability at pH 2.5: aqueous buffer pH 2.5, 24 h at 37° C.; for Stability at pH 7: aqueous buffer pH 7, 24 h at 37° C.; for Stability at pH 9.5: aqueous buffer pH 9.5, 24 h at 37° C.
Data set [2] is described as follows: Stability in washing liquor (washing conditions, OMO Progress base), HPLC. The conditions noted are these: for Stability at pH 11: pH 11, washing conditions as in example 5; for Amount ecovered / Recovered: washing liquor stirred one hour at room temperature; for Amount ecovered: extraction, HPLC; for Recovered: relative to amount incorporated. The protocol:
(§1) Washing tests were performed according to the following hand washing test cedure with OMO Progress® base which contains the following ingredients:
(§2) 1- The washing powder (2.1 g) containing the phenacyl acetal (I, about 21 mg, 1%) was dissolved in water (500 ml) at room temperature.
The washing liquor (2.1 g washing powder containing 1% phenacyl acetal (I) in 500 ml water), according to 1 in the above described washing procedure, was stirred during one hour at room temperature. Extraction with an organic solvent (preferably t-butyl methyl ether) to recover organic compounds and analysis with HPLC gave the amounts of recovered phenacyl acetal (I), table 4.

The nature of data set [3]: Photolysis of phenacyl acetals (I) in solution, mercury lamp, GC-FID. Set-up: key: 0: no cleavage; +: slow cleavage; ++: medium cleavage; +++: fast cleavage. The conditions noted are these: solution (ethanol), mercury lamp 150 W, Pyrex, one hour irradiation. On the procedure: Photorelease assays were conducted on solutions (typical concentrations of precursors (I): 0.05% to 0.1% g/v) in organic solvents (preferably ethanol) or on cotton towels after deposition of the phenacyl acetals (I), as described below in the example 3.
The solutions were irradiated with a mercury lamp (150 W) in a borosilicate glass apparatus (Pyrex®) so as to limit the irradiation window to mainly the UVA and UVB spectrum of sun light. The alcoholic solution was irradiated for one hour and samples taken every 15 minutes to analyze the extent of the photolysis.
The presence of the aryl ketone (II) and ester (III) after photolysis in solutions was determined by using GC retention times. Samples (0.2 μl) were injected (on column injection) without further dilution. Gas chromatography-flame ionization detection (GC-FID) was carried out with a Fisons-GC 8000 series apparatus, using a J&W Scientific DB-5 capillary column (30 m, 0.32 mm id, 0.25 μm film, He carrier gas, 85 kPa).
Whereas precursors derived from Oranger Crystals® cleaved fairly slowly (FIG. 1), those derived from acetanisole cleaved fast and Fixolide® precursors even faster. The rates are calculated from the GC analysis (corresponding peak area).

Data set [4] can be described thus: Hand washing tests: partition between water and fabric (substantivity), HPLC. The conditions noted are these: for Amounts recovered: Water: extract of aqueous washing liquor after hand washing; for Amounts recovered: Water, % (±10%): extract of aqueous washing liquor; for Amounts recovered: Water, % (±10%) / Amounts recovered: Towel extract, % (±10%): of amount incorporated; for Amounts recovered: Towel extract: extract of dried towels after hand washing; for Amounts recovered: Towel extract, % (±10%): extract of dried towels. On the procedure:
as §1, §2
2- The towels (35 g) were added to the liquor and mixed with a glass stick.
3- Towels were soaked for 45 minutes with stirring every 15 minutes.
4- The wringed towels were rinsed three times with fresh water (250 ml) with intermediate wringing.
5- Towels were allowed to dry in a dark and odorless place before analysis or evaluation.
The towels were extracted with an organic solvent (preferably t-butyl methyl ether) using a Dionex ASE200 Accelerated Solvent Extractor and the extracts were analyzed by HPLC (Hewlett Packard Series 1100, column: Zorbax Eclipse XDB-C18, dimensions 15 cm×4.6 mm×5 μm).
The washing liquor was extracted with an organic solvent (preferably t-butyl methyl ether, 250 ml) and analyzed by HPLC as above.
The aqueous liquors were extracted with an organic solvent (preferably t-butyl methyl ether) and analytical HPLC gave the results in table 5, which are related to partition between water and fabric.

`CC/C=C\CCOC(C)OCC(=O)c1cc2c(cc1C)C(C)(C)C(C)CC2(C)C` (centres unmarked) [compound 9, 1-(3,5,5,6,8,8-Hexamethyl-5,6,7,8-tetrahydro-naphthalen-2-yl)-2-(1-hex-3(Z)-enyloxy-ethoxy)-ethanone]: in data set [1], the “Stability at pH 2.5” value is “stable”, the “Stability at pH 7” value is reported as “stable” and the “Stability at pH 9.5” value is “stable”. Also, in data set [2], the “Stability at pH 11” value is “stable”, the Amount ecovered is recorded as 20.0 mg and the Recovered was found to be 96%. In data set [3], the “UV-test (release of aryl ketone (II) and ester (III), cleavage)” value (shortened to “UV-test”) is “+++”. Also, in data set [4], the “Amounts recovered: Water” value came out at 15.3 mg; the “Amounts recovered: Water, % (±10%)” value worked out at 67%; the “Amounts recovered: Towel extract” value is reported as 10.3 mg; the “Amounts recovered: Towel extract, % (±10%)” value was 45%.
Turning to `CCOC(C)OCC(=O)c1ccc(OC)cc1` (centres unmarked) [compound 1, 2-(1-Ethoxy-ethoxy)-1-(4-methoxy-phenyl)-ethanone], in data set [1], the “Stability at pH 2.5” value was “unstable”, the “Stability at pH 7” value was “stable” and the “Stability at pH 9.5” value was “stable”. Further, the “UV-test” value in data set [3] is listed as “++”.
With `CCOC(C)OCC(=O)c1cc2c(cc1C)C(C)(C)C(C)CC2(C)C` (centres unmarked) [compound 10, 2-(1-Ethoxy-ethoxy)-1-(3,5,5,6,8,8-hexamethyl-5,6,7,8-tetrahydro-naphthalen-2-yl)-ethanone], the “UV-test” value in data set [3] is recorded as “+++”.
For the compound `CC/C=C\CCOC(C)OCC(=O)c1ccc(OC)cc1` (centres unmarked) [compound 3, 2-(1-Hex-3(Z)-enyloxy-ethoxy)-1-(4-methoxy-phenyl)-ethanone], in data set [1], the “Stability at pH 2.5” value was “unstable”, the “Stability at pH 7” value was “stable” and the “Stability at pH 9.5” value is given as “stable”. In addition, in data set [2], the “Stability at pH 11” value was “stable”, the Amount ecovered worked out at 22.3 mg and the Recovered worked out at 100%. Moreover, the “UV-test” value in data set [3] is “++”. Moreover, in data set [4], the “Amounts recovered: Water” value was 13.3 mg; the “Amounts recovered: Water, % (±10%)” value is given as 59%; the “Amounts recovered: Towel extract” value was 14 mg; the “Amounts recovered: Towel extract, % (±10%)” value was determined as 62%.
For the compound `CCCCCCOC(C)OCC(=O)c1ccc(OC)cc1` (centres unmarked) [compound 5, 2-(1-Hexyloxy-ethoxy)-1-(4-methoxy-phenyl)-ethanone], in data set [1], the “Stability at pH 2.5” value is recorded as “unstable”, the “Stability at pH 7” value is on record as “stable” and the “Stability at pH 9.5” value is reported as “stable”. Moreover, in data set [2], the “Stability at pH 11” value was “stable”, the Amount ecovered is recorded as 25.7 mg and the Recovered stood at 100%. In data set [3], the “UV-test” value is “++”. In data set [4], the “Amounts recovered: Water” value is given as 18.4 mg; the “Amounts recovered: Water, % (±10%)” value was 73%; the “Amounts recovered: Towel extract” value stood at 11.7 mg; the “Amounts recovered: Towel extract, % (±10%)” value came to 46%.
Regarding `CCCCCCOC(C)OCC(=O)c1cc2c(cc1C)C(C)(C)C(C)CC2(C)C` (centres unmarked) [compound 8, 1-(3,5,5,6,8,8-Hexamethyl-5,6,7,8-tetrahydro-naphthalen-2-yl)-2-(1-hexyloxy-ethoxy)-ethanone], in data set [1], the “Stability at pH 2.5” value is on record as “stable”, the “Stability at pH 7” value is on record as “stable” and the “Stability at pH 9.5” value is given as “stable”. Further, in data set [2], the “Stability at pH 11” value was “stable”, the Amount ecovered worked out at 22.2 mg and the Recovered was found to be 99%. The “UV-test” value in data set [3] was “+++”. In addition, in data set [4], the “Amounts recovered: Water” value was determined as 16.3 mg; the “Amounts recovered: Water, % (±10%)” value was determined as 69%; the “Amounts recovered: Towel extract” value came to 8.7 mg; the “Amounts recovered: Towel extract, % (±10%)” value is given as 42%.
As to `COc1ccc(C(=O)COC(Cc2ccccc2)OC)cc1` (centres unmarked) [compound 15, 1-(4-Methoxy-phenyl)-2-(1-methoxy-2-phenyl-ethoxy)-ethanone], in data set [3], the “UV-test” value is recorded as “++”.
In the case of `CCCCCCOC(C)OCC(=O)c1ccc2ccccc2c1` (centres unmarked) [compound 11, 2-(1-Hexyloxy-ethoxy)-1-naphthalen-2-yl-ethanone], the “UV-test” value in data set [3] was “+”.
On to `COc1ccc(C(=O)COC(C)OCCCc2ccccc2)cc1` (centres unmarked) [compound 6, 1-(4-Methoxy-phenyl)-2-[1-(3-phenyl-propoxy)-ethoxy]-ethanone], for which, in data set [1], the “Stability at pH 2.5” value is on record as “unstable”, the “Stability at pH 7” value was “stable” and the “Stability at pH 9.5” value was “stable”. In addition, in data set [2], the “Stability at pH 11” value is given as “stable”, the Amount ecovered is listed as 20.8 mg and the Recovered was found to be 94%. In addition, the “UV-test” value in data set [3] is given as “++”. In addition, in data set [4], the “Amounts recovered: Water” value is recorded as 14.5 mg; the “Amounts recovered: Water, % (±10%)” value worked out at 65%; the “Amounts recovered: Towel extract” value was 17 mg; the “Amounts recovered: Towel extract, % (±10%)” value was determined as 47%.
For `CC(C)=CCCC(C)CCOC(C)OCC(=O)c1ccc2ccccc2c1` (centres unmarked) [compound 12, 2-[1-(3,7-Dimethyl-oct-6-enyloxy)-ethoxy-]1-naphthalen-2-yl-ethanone], the “UV-test” value in data set [3] is “+”.
`COc1ccc(C(=O)COC(C)OCCC(C)CCC=C(C)C)cc1` (centres unmarked) [compound 7, 2-[1-(3,7-Dimethyl-oct-6-enyloxy)-ethoxy]-1-(4-methoxy-phenyl)-ethanone]: the “UV-test” value in data set [3] is reported as “++”.
In the case of `COc1ccc(C(=O)COC(C)OCCc2ccccc2)cc1` (centres unmarked) [compound 2, 1-(4-Methoxy-phenyl)-2-(1-phenethyloxy-ethoxy)-ethanone], in data set [1], the “Stability at pH 2.5” value is “unstable”, the “Stability at pH 7” value was “stable” and the “Stability at pH 9.5” value is “stable”. In addition, in data set [2], the “Stability at pH 11” value is listed as “stable”, the Amount ecovered is reported as 18.5 mg and the Recovered is 83%. Besides, the “UV-test” value in data set [3] was “++”. Also, in data set [4], the “Amounts recovered: Water” value is reported as 15 mg; the “Amounts recovered: Water, % (±10%)” value is on record as 63%; the “Amounts recovered: Towel extract” value worked out at 10.5 mg; the “Amounts recovered: Towel extract, % (±10%)” value was 44%.
Consider `COc1ccc(C(=O)COC(C)OCCC(C)CC(C)(C)C)cc1` (centres unmarked) [compound 4, 1-(4-Methoxy-phenyl)-2-[1-(3,5,5-trimethyl-hexyloxy)-ethoxyl]-ethanone], for which, in data set [1], the “Stability at pH 2.5” value is “unstable”, the “Stability at pH 7” value is “stable” and the “Stability at pH 9.5” value is listed as “stable”. For the same compound, in data set [2], the “Stability at pH 11” value is recorded as “stable”, the Amount ecovered is 23.5 mg and the Recovered worked out at 100%. In addition, the “UV-test” value in data set [3] was “++”. In addition, in data set [4], the “Amounts recovered: Water” value was found to be 17.5 mg; the “Amounts recovered: Water, % (±10%)” value is 75%; the “Amounts recovered: Towel extract” value was 8.9 mg; the “Amounts recovered: Towel extract, % (±10%)” value is 38%.
